Experimental findings from ChEMBL document CHEMBL1130845, “Modulation of multidrug resistance by taxuspine C and other taxoids from Japanese yew” (Bioorg Med Chem Lett, 1998) are described below.

The nature of experiment [1]: Cytotoxic activity was evaluated against Epidermoid Carcinoma KB cells. The experiment is classed as functional, cell-based. As to conditions: Homo sapiens.
For another experiment, the system named is L1210. In words: Cytotoxic activity was evaluated against murine Leukemia L1210 cells. As to conditions: Mus musculus. The experiment is classed as functional, cell-based.
Experiment [2] can be described thus: Effect on cellular accumulation of Vincristine in multidrug resistant human ovarian cancer 2780AD cells was determined in the presence at a dose 10 ug/mL of taxoids. The experiment is classed as functional, A2780 ADR.
For experiment [3], the system named is Mus musculus. Description: Compound was evaluated for antitumor activity in P388/VCR-bearing mice at 200 mg/kg in the presence of vincristine at 0.1 mg/kg. The experiment is classed as functional.
The test system of experiment [4] is Mus musculus. In words: Compound was evaluated for antitumor activity in P388/VCR-bearing mice at 200 mg/Kg as in the presence of vincristine at 0.1 mg/kg. The experiment is classed as functional.
In experiment [5] the test system is Mus musculus. Description: Compound was evaluated for antitumor activity in P388/VCR-bearing mice at 200 mg/kg as in the presence of vincristine at the 0.1 mg/kg. The experiment is classed as functional.
Experiment [6] concerns Mus musculus. In words: Compound was evaluated for antitumor activity in P388/VCR-bearing mice at 200 mg/Kg. The experiment is classed as functional.
For experiment [7], the system named is Mus musculus. Description: Compound was evaluated for antitumor activity in P388/VCR-bearing mice at 200 mg/kg in the presence of vincristine at 0.2 mg/kg. The experiment is classed as functional.
In experiment [8] the test system is Mus musculus. In words: Compound was evaluated for antitumor activity in P388/VCR-bearing mice at 0.2 mg/Kg as in the presence of vincristine at 0.1 mg/kg as the ratio of median survival time of treated mice to control mice. In kind it is functional.
Experiment [9] concerns Mus musculus. In words: Compound was evaluated for antitumor activity in P388/VCR-bearing mice at 0.2 mg/Kg in the presence of vincristine at 0.1 mg/kg as range. In kind it is functional.
The test system of experiment [10] is Mus musculus. In words: Compound was evaluated for antitumor activity in P388/VCR-bearing mice at 0.2 mg/Kg as range. In kind it is functional.
The subject of experiment [11] is Mus musculus. In words: Compound was evaluated for antitumor activity in P388/VCR-bearing mice at 0.2 mg/Kg as the ratio of median survival time of treated mice to control mice. In kind it is functional.
Experiment [12] deals with Mus musculus. In words: Compound was evaluated for antitumor activity in P388/VCR-bearing mice at 0.2 mg/Kg in the presence of vincristine at 0.1 mg/kg as percent ratio of median survival time of treated mice to control mice. The experiment is classed as functional.
Experiment [13] deals with Mus musculus. In words: Compound was evaluated for antitumor activity in P388/VCR-bearing mice at 0.2 mg/Kg as percent ratio of median survival time of treated mice to control mice. The experiment is classed as functional.
Experiment [14] in a line: Effect on cellular accumulation of Vincristine in multidrug resistant human ovarian cancer 2780AD cells was determined at a dose 10 ug/mL. In kind it is functional, A2780 ADR.

≈ marks a conversion by molar mass, not a printed value.

`CC(=O)O[C@@]12CO[C@@H]1C[C@H](O)[C@@]1(C)C(=O)[C@H](OC(=O)CC(C)O)C3=C(C)[C@@H](OC(=O)[C@H](O)[C@@H](NC(=O)c4ccccc4)c4ccccc4)C[C@@](O)([C@@H](OC(=O)c4ccccc4)[C@H]21)C3(C)C` (some centres undefined): the IC50 is 0.0025 µg/mL (≈ 0.00278 µM) in experiment [1] and 0.95 µg/mL (≈ 1.06 µM) in the experiment with L1210.

Turning to `CC(=O)O[C@H]1C(=O)[C@@]2(C)[C@H]([C@H](OC(=O)c3ccccc3)[C@]3(O)C[C@H](O)C(C)=C1C3(C)C)[C@]1(OC(C)=O)CO[C@@H]1C[C@@H]2O` [BACCATIN III], the IC50 in experiment [1] is 10 µg/mL (≈ 17 µM); in the experiment on L1210, more than 10 µg/mL. Moreover, in experiment [2], the VCR accumulation turned out to be 84.

In the case of `C=C1[C@@H](O)CC[C@@]2(C)[C@@H](OC(C)=O)[C@H](O)C3=C(C)C(=O)C[C@@H]([C@@H](O)[C@H]12)C3(C)C`, the IC50 (in [1]; in the experiment with L1210) was more than 10 µg/mL each time.

In the case of `C=C1C2[C@H](OC(C)=O)[C@@H]3CC(=O)[C@@H](C)C([C@@H](OC(C)=O)[C@H](OC(C)=O)[C@]2(C)CC[C@@H]1OC(=O)/C=C/c1ccccc1)C3(C)C` (some centres undefined), the IC50 in [1] was more than 10 µg/mL; in the experiment with L1210 it was 5.8 µg/mL (≈ 9.53 µM). Moreover, the “Median T/C” value in the experiment on Mus musculus [3] was 12 days; in the experiment with Mus musculus [7], 15.8 days. For the same molecule, the Range is 10 days in the experiment on Mus musculus [4] and 12 days in the experiment on Mus musculus [7]. The T/C with Mus musculus [5] is listed as 105%; in the experiment with Mus musculus [6] it was 138%.

In the case of `CC[C@]1(O)C[C@H]2CN(CCc3c([nH]c4ccccc34)[C@@](C(=O)OC)(c3cc4c(cc3OC)N(C=O)[C@H]3[C@@](O)(C(=O)OC)[C@H](OC(C)=O)[C@]5(CC)C=CCN6CC[C@]43[C@@H]65)C2)C1` [VINCRISTINE], the “Median T/C” value was determined as 10.6 days in the experiment on Mus musculus [8] and 12.6 days in the experiment on Mus musculus [11]. Also, the Range with Mus musculus [9] and in the experiment on Mus musculus [10] was 10 days each time. Further, the T/C with Mus musculus [12] was 92%; with Mus musculus [13], 110%.

For the molecule `CC(=O)O[C@H]1C2=C(CO)[C@@H](O)CC[C@@]2(C)[C@@H](OC(C)=O)[C@H](OC(C)=O)[C@@]2(O)[C@H](C)C(=O)C[C@@H]1C2(C)C`, the IC50 is 2.6 µg/mL (≈ 5.09 µM) in [1] and more than 10 µg/mL in the experiment with L1210. Besides, in experiment [14], the VCR accumulation is reported as 203.

In the experiment on L1210, `CC(=O)O[C@H]1C(=O)[C@@]2(C)[C@H]([C@H](OC(=O)c3ccccc3)[C@]3(O)C[C@H](OC(=O)[C@H](O)[C@@H](NC(=O)c4ccccc4)c4ccccc4)C(C)=C1C3(C)C)[C@]1(OC(C)=O)CO[C@@H]1C[C@@H]2O` [PACLITAXEL] gave an IC50 of 0.33 µg/mL (≈ 0.386 µM).

In the case of `C=C1[C@@H](OC(=O)/C=C/c2ccccc2)C[C@H](OC(C)=O)[C@]2(C)[C@@H]1C[C@@H]1C[C@H](O)C(C)=C([C@@H](OC(C)=O)[C@@H]2OC(C)=O)C1(C)C` [TAXEZOPIDINE H], the concentration for half-maximal inhibition (IC50) in experiment [1] is more than 10 µg/mL; with L1210 it was 6.2 µg/mL (≈ 10.2 µM).

Turning to `C=C1[C@@H](OC(=O)/C=C/c2ccccc2)CC[C@@]2(C)[C@@H](OC(C)=O)[C@H](OC(C)=O)[C@@]34[C@H](C)C(=O)C[C@@H]([C@@H](OC(C)=O)[C@@]132)C4(C)C` [TAXUSPINE C], the IC50 (in [1]; in the experiment on L1210) was more than 10 µg/mL in each case.

Consider `C=C1[C@@H](OC(=O)/C=C/c2ccccc2)CC[C@@]2(C)[C@@H](OC(C)=O)[C@H](OC(C)=O)C3=C(C)[C@@H](OC(C)=O)C[C@@H]([C@@H](O)[C@H]12)C3(C)C`, for which the IC50 in [1] was 9.2 µg/mL (≈ 15.1 µM); in the experiment on L1210 it was 5.8 µg/mL (≈ 9.53 µM).

Regarding `C=C1[C@@H](O)C[C@H](OC(C)=O)[C@@]2(C)[C@@H](OC(C)=O)[C@H](OC(C)=O)C3=C(C)[C@@H](O)C[C@@H]([C@@H](OC(C)=O)[C@H]12)C3(C)C`, the IC50 was 9.2 µg/mL (≈ 17.1 µM) in [1] and more than 10 µg/mL in the experiment on L1210.

With `C=C1[C@@H](O)CC[C@@]2(C)[C@@H](O)[C@H](OC(C)=O)C3=C(C)C(=O)C[C@@H]([C@@H](O)[C@H]12)C3(C)C`, the IC50 (in experiment [1]; in the experiment with L1210) was more than 10 µg/mL throughout.

For `CCCCCC(=O)N(C)[C@@H](c1ccccc1)[C@@H](O)C(=O)O[C@H]1C[C@@]2(O)[C@@H](OC(=O)c3ccccc3)[C@@H]3[C@]4(OC(C)=O)CO[C@@H]4C[C@H](O)[C@@]3(C)C(=O)[C@H](OC(C)=O)C(=C1C)C2(C)C`, the IC50 in experiment [1] is 0.17 µg/mL (≈ 0.197 µM); in the experiment on L1210, 0.48 µg/mL (≈ 0.557 µM).

`C=C1[C@@H](OC(=O)/C=C/c2ccccc2)C[C@H](O)[C@@]2(C)[C@@H](O)[C@H](OC(C)=O)C3=C(C)C(=O)C[C@@H]([C@@H](O)[C@H]12)C3(C)C`: the values for the IC50 (in experiment [1]; in the experiment on L1210) were 8.5 µg/mL (≈ 15.8 µM) and more than 10 µg/mL, respectively.
